Measurements taken from patent US9803220B2, “Production of alkenes from 3-hydroxy-1-carboxylic acids via 3-sulfonyloxy-1-carboxylic acids” (Scientist of Fortune S.A., priority 2012, dated 2017).

Assays:
[1] = Thermal conversion of 3-sulfonyloxybutyrate to propylene, headspace GC-FID; assay type: physicochemical; settings: 50 mM substrate, 50 mM Tris-HCl pH 7.5, 0 to 90 h
Protocol: The thermal conversion assays containing, in a total volume of 0.5 mL, 50 mM 3-sulfonyloxybutyrate and 50 mM Tris-HCl pH 7.5, were incubated in 2 ml sealed glass vials (Interchim) at 37° C. and 65° C. with shaking. Propylene production at different incubation times (from 0 to 90 h) was analyzed as follows. One ml of the gaseous phase was collected and injected into a gas chromatograph Varian 430-GC equipped with FID detector. Nitrogene was used as carrier gas with a flow rate of 1.5 ml/min. Volatile compounds were separated on RT-Alumina Bond/Na2SO4 column (Restek) using an isothermal mode at 130° C. Gaseous product of thermal decomposition of disodium (R,S)-3-sulfonyloxybutyrate was identified by comparison with propylene standard (Sigma, Aldrich). Under these GC conditions, the retention time for propylene was 3.2 min. […] (FIGS. 6 and 7).

[2] = system: sulfotransferase CurM (PKS ST); experiment: Sulfotransferase activity assay, sulfurylation of 3-hydroxybutyrate with PAPS, MS detection; assay type: biochemical, Moorea producens (formerly Lyngbya majuscala) 19L; settings: 5 mM (R,S)-3-hydroxybutyrate, 5 mM PAPS, 5 mg/ml enzyme, 1.5 hours at 37° C., pH 7.5
Text: Sequence of sulfotransferase domain of polyketide synthase CurM (PKS ST) inferred from the genome of Moorea producens (formerly Lyngbya majuscala) 19L was generated by oligonucleotide concatenation to fit the codon usage of E. coli. A stretch of 6 histidine codons was inserted after the methionine initiation codon to provide an affinity tag for purification. The gene thus synthesized was cloned in a pET25b(+) expression vector (the vectors were constructed by GENEART AG). After transformation of the E. coli strain BL21 (DE3), the protein was produced according to the procedure described in Example 1 and sulfotransferase activity was assayed under the following conditions
5 mM (R,S)-3-hydroxybutyrate
5 mg/ml purified sulfotransferase (ST) CurM.
Control reaction was performed using the same reaction mixture without addition of the enzyme. The assays were incubated for 1.5 hours at 37° C. An aliquot of 200 μl of each assay was then removed, filtered through a 0.45 μm filter and the filtrated solution was transferred into a clean vial. MS analyses were performed in negative electrospray mode by direct injection of sample using PE SCIEX API 2000 quadrupole instrument. The presence of 3-sulfonyloxybutyrate was evaluated. […] The peak at m/z=182.8 was assigned to mono-deprotonated form of 3-sulfonyloxybutyrate, [M-H]^−. […]

| SMILES | propylene production by thermal conversion ([1]; 37° C.) | propylene production by thermal conversion ([1]; 37° C., listed as sulfonylbutyrate) | propylene production by thermal conversion ([1]; 65° C.) | transfer of the sulfate group from PAPS onto hydroxyl group (formation of 3-sulfonyloxybutyrate) [2] |
| --- | --- | --- | --- | --- |
| CC(CC(=O)[O-])OS(=O)(=O)[O-].[Na+].[Na+] (racemic) [disodium (R,S)-3-sulfonyloxybutyrate, Disodium (R,S)-3-sulfonyloxybutyrate] | Significant production of propylene | already occurs | Significant production of propylene |  |
| CC(O)CC(=O)O (stereo not shown) [3-hydroxybutyrate] |  |  |  | catalyzes transfer of the sulfate group |
